From patent publication US10053431B2, “Tetrahydro-benzodiazepinones” (priority 2013, dated 2018)
Where a name gives a salt, the structure may show the parent alone.

Target: BIR2 domain of XIAP (Homo sapiens (Human), UniProt P98170, C202A/C213G)
Test: TR-FRET assay for BIR2 (inhibition of binding of XIAP BIR2 domain to SMAC-derived Peptide A)
Details: 6x His-tagged BIR2 domain (aa 124-240 of XIAP) 10 nM, Peptide A 20 nM, TR-FRET; read-out: IC50 BIR2

Sequence of BIR2 domain of XIAP (P98170 124-240 with tags or gaps C202A/C213G limits assumed): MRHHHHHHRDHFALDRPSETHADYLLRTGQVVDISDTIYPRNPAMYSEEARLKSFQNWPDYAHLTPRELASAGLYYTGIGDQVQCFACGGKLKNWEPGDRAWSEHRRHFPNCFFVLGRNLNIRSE

SMILES	IC50 [nM]
CN[C@@H](C)C(=O)N[C@H]1CN(C(=O)c2ccc(C(O)C(F)(F)F)cc2)c2ccccc2N(Cc2c(OC)ccc3cc(Br)ccc23)C1=O (mixture of isomers) [Example 32, (S)—N—{(S)-1-(6-Bromo-2-methoxy-naphthalen-1-ylmethyl)-2-oxo-5-[4-(2,2,2-trifluoro-1-hydroxy-ethyl)-benzoyl]-2,3,4,5-tetrahydro-1H-benzo[b][1,4]diazepin-3-yl}-2-methylamino-propionamide hydrochloride, mixture of diastereomers]	25
CN[C@@H](C)C(=O)N[C@H]1CN(C(=O)c2ccccc2[C@H](C)O)c2ccccc2N(Cc2c(C)ccc3ccccc23)C1=O (stereo in doubt) [Example 153, (25)-N-[(3S)-1-[2-[(1S)-1-hydroxyethyl]benzoyl]-5-[(2-methylnaphthalen-l-yl)methyl]-4-oxo-2,3-dihydro-1,5-benzodiazepin-3-yl]-2-(methylamino)propanamide;(2S)-N-[(3S)-1-[2-[(1R)-1-hydroxyethyl]benzoyl]-5-[(2-methylnaphthalen-1-yl)methyl]-4-oxo-2,3-dihydro-1,5-benzodiazepin-3-yl]-2-(methylamino)propanamide]	52.4
CN[C@@H](C)C(=O)N[C@H]1CN(CCc2ccccc2)c2ccccc2N(Cc2cccc3ccccc23)C1=O [Example 7, (S)-2-Methylamino-N—((S)-1-naphthalen-1-ylmethyl-2-oxo-5-phenethyl-2,3,4,5-tetrahydro-1H-benzo[b][1,4]diazepin-3-yl)-propionamide trifluoroacetate]	1550
CN[C@@H](C)C(=O)N[C@H]1CN(C(=O)COCCOCCOC)c2ccccc2N(Cc2c(C)ccc3ccccc23)C1=O [Example 13, (S)—N—[(S)-5-{2-[2-(2-Methoxy-ethoxy)-ethoxy]-acetyl}-1-(2-methyl-naphthalen-1-ylmethyl)-2-oxo-2,3,4,5-tetrahydro-1H-benzo[b][1,4]diazepin-3-yl]-2-methylamino-propionamide hydrochloride]	234
CN[C@@H](C)C(=O)N[C@H]1CN(C(=O)CCCC(C)=O)c2ccccc2N(Cc2c(OC)ccc3cc(Br)ccc23)C1=O [Example 27, (S)—N—((S)-1-((6-bromo-2-methoxynaphthalen-1-yl)methyl)-2-oxo-5-(5-oxohexanoyl)-2,3,4,5-tetrahydro-1H-benzo[b][1,4]diazepin-3-yl)-2-(methylamino)propanamide hydrochloride]	33
CN[C@@H](C)C(=O)N[C@H]1CN(C(=O)c2ccc(C(=O)OC)cc2)c2ccccc2N(Cc2c(OC)ccc3cc(Br)ccc23)C1=O [Example 28, 4-[(S)-5-(6-Bromo-2-methoxy-naphthalen-1-ylmethyl)-3-((S)-2-methylamino-propionylamino)-4-oxo-2,3,4,5-tetrahydro-benzo[b][1,4]diazepine-1-carbonyl]-benzoic acid methyl ester hydrochloride]	39

The next lines start with the values.

IC50 [nM]	SMILES
78	CN[C@@H](C)C(=O)N[C@H]1CN(C(=O)CC2CCCCC2)c2ccccc2N(Cc2c(OC)ccc3cc(Br)ccc23)C1=O [Example 13i]
37	CN[C@@H](C)C(=O)N[C@H]1CN(C(=O)c2ccc(C(=O)C(C)(C)C)cc2)c2ccccc2N(Cc2c(OC)ccc3cc(Br)ccc23)C1=O [Example 13j]
67	CN[C@@H](C)C(=O)N[C@H]1CN(C(=O)c2cccc(C(C)=O)c2)c2ccccc2N(Cc2c(OC)ccc3cc(Br)ccc23)C1=O [Example 13l]
28	CN[C@@H](C)C(=O)N[C@H]1CN(C(=O)Cc2ccc(C(C)=O)cc2)c2ccccc2N(Cc2c(OC)ccc3cc(Br)ccc23)C1=O [Example 13o]
92	CN[C@@H](C)C(=O)N[C@H]1CN(C(=O)CC23CC4CC(CC(C4)C2)C3)c2ccccc2N(Cc2c(OC)ccc3cc(Br)ccc23)C1=O [Example 13q]
